We go through 3 compounds from paper PMC4747952, “Development of TASP0410457 (TASP457), a novel dihydroquinolinone derivative as a PET radioligand for central histamine H3 receptors” (EJNMMI Research, 2016).

In one data set the target is T1, P-glycoprotein (MDR1) (Homo sapiens, UniProt P08183).
T1 construct: expressed in transfected cells; host or cells: LLC-GA5-COL300
Put plainly: P-glycoprotein-mediated transcellular transport, LLC-GA5-COL300 cells. It counts as in vitro ADME. Particulars: for susceptibility for P-glycoprotein (substrate or not): assumed criterion: efflux ratio (ER) exceeding 2.00; for efflux ratio at 2 h, 1 µM: human, LLC-PK1, ER=Papp, b to a/Papp, a to b, LLC-GA5-COL300 cells. How it is done: (§1) Assays for P-glycoprotein-mediated transcellular transport of compounds LLC-GA5-COL300 cells expressing human P-glycoprotein were seeded at a density of 4.5 × 10^5 cells/cm2 onto polycarbonate membrane filters of 12-well cell culture insert plates and cultured at 37°C in a humidified incubator containing 5% CO2 for 3 days. After each cell monolayer was pre-incubated at 37°C for 20 min in Hank’s balanced salt solution containing 10 mM HEPES (HBSS buffer), transcellular transport experiments were initiated by adding the test compound solution to the apical or basal side of the cell culture inserts. HBSS buffer was sampled from the compartment opposite of that spiked with the test compounds at 0.5, 1, 1.5 and 2 h after initiation of the experiments, and concentrations of the test compounds were determined using LC-MS/MS. The apparent permeability coefficient (Papp) of the test compounds was calculated using the following equation:
(§2) Papp= dQ/dt / C0 / A Eq. 1, where dQ/dt represents the rate of permeation of the compounds, C0 is the initial concentration of the test compounds ([…]), and A is the area of the monolayer. The efflux ratio (ER) was defined as […]
ER=Papp, b to a/Papp, a to b Eq. 2, where Papp, b to a and Papp, a to b represent Papp in the basal-to-apical (b to a) and apical-to-basal (a to b) directions, respectively. […]

The next data set deals with T2, rat H3R (Rattus norvegicus, UniProt Q9QYN8).
T2 construct: Rat cerebral cortex and monkey frontal cortex were dissected; from tissue; host or cells: rat cerebral cortex membranes
Put plainly: In vitro binding to H3Rs, rat cerebral cortex membranes, [^3H]N-α-methylhistamine. Particulars: 1 nM [^3H]N-α-methylhistamine, geometric mean, n = 3, read-out: Affinity for H3Rs Rat, IC50. As for the experimental part:
(§3) Rat cerebral cortex and monkey frontal cortex were dissected, homogenized with 50 mM Tris buffer (pH 7.4) containing 5 mM EDTA and Protease Inhibitor Cocktail Tablets (Roche Diagnostics, Indianapolis, IN) and centrifuged at 48,000×g for 15 min at 4 °C. The pellets were then suspended in binding buffer (50 mM Tris containing 5 mM EDTA, pH 7.4) and stored at −80 °C as membrane preparations.
(§4) The membrane preparations were thawed and incubated in the binding buffer containing 0.1 % bovine serum albumin, 1 nM [^3H]N-α-methylhistamine (PerkinElmer, Waltham, MA) with various concentrations of a dihydroquinolinone derivative (i.e., test compound) at 25 °C for 1 h. The reaction was terminated by rapid filtration through 96-well GF/C filter plates (PerkinElmer) presoaked with 0.5 % polyethyleneimine (Wako, Osaka, Japan). After washes with ice-cold binding buffer, the plates were dried and filled with Microscint-o (PerkinElmer). The radioactivity retained on the filters was counted using a TopCount NXT (PerkinElmer). Total and nonspecific radioligand binding was determined by reaction without and with 10 μM thioperamide and clobenpropit, respectively. The specific radioligand binding was then calculated by subtracting the nonspecific binding from the total binding. The IC50 value for inhibition of the radioligand binding by the test compound was determined using a nonlinear fit of the concentration-response curve for each test compound using SAS 9.2 (SAS Institute Inc., Cary, NC). Data were expressed as the geometric means of IC50 values from three independent experiments run in duplicate.

Data set [1] is described as follows: Lipophilicity measurement (Log D). The settings on record: pH 7.4; octanol and phosphate buffer (pH7.4); read-out: Log D7.4. It counts as physicochemical. How it is done: Lipophilicity measurement
Log D was determined by partitioning each compound between an octanol and phosphate buffer […]
each layer using HPLC with ultraviolet (UV) detection.
as §1, §2

For the next data set, the system named is Glutamate AMPA. Put plainly: Off-target binding (Cerep). Details: unit of the concentration uncertain. The source says: (§5) Off-target binding of compounds assessed using an in-house assay (M4) and a commercial battery (all others) (Cerep, Celle L'Evescault, France).
(§6) Concentration % Inhibition Concentration % Inhibition Concentration % Inhibition […]
(§7) *1α -amino-3-hydroxy-5-methyl-4-isoxazolepropionic acid receptor; *2N-methyl-D-aspartate receptor; *3Strychnine-insensitive glycine-binding module of NMDA receptor; *4Phencyclidine-binding site of NMDA receptor; *5ATP-sensitive potassium channel; *6Voltage-dependent potassium channel; *7small conductance calcium-activated potassium channel; *85-hydroxytryptamine 1A receptor

A further data set deals with K+ channel KATP. As to the kind of experiment: Off-target binding (Cerep). Also noted: unit of the concentration uncertain.
Description: as §5, §6, §7

A further data set deals with K+ channel SKCa. As to the kind of experiment: Off-target binding (Cerep). Also noted: unit of the concentration uncertain.
Description: as §5, §6, §7

The next data set deals with K+ channel KV. As to the kind of experiment: Off-target binding (Cerep). Also noted: unit of the concentration uncertain.
Description: as §5, §6, §7

For another data set, the system named is Glutamate NMDA. Put plainly: Off-target binding (Cerep). Details: unit of the concentration uncertain.
Description: as §5, §6, §7

The test system of data set [2] is Glutamate Glycine (Strychnine-insensitive glycine-binding module of NMDA receptor). Put plainly: Off-target binding (Cerep). Details: unit of the concentration uncertain.
Description: as §5, §6, §7

Data set [3] concerns Glutamate PCP (Phencyclidine-binding site of NMDA receptor). Put plainly: Off-target binding (Cerep). Details: unit of the concentration uncertain.
Description: as §5, §6, §7

The subject of a further data set is Opioid kappa (KOP). As to the kind of experiment: Off-target binding (Cerep). Details: unit of the concentration uncertain. The source says: (§8) Off-target binding of compounds assessed using an in-house assay (M4) and a commercial battery (all
(§9) others) (Cerep, Celle L'Evescault, France).

The next data set relates to Serotonin 5-HT1B. As to the kind of experiment: Off-target binding (Cerep). Details: unit of the concentration uncertain.
Description: as §8, §9

The test system of a further data set is Imidazoline I2. Put plainly: Off-target binding (Cerep). Also noted: unit of the concentration uncertain.
Description: as §8, §9

The next data set relates to Glutamate Kainate. As to the kind of experiment: Off-target binding (Cerep). Details: unit of the concentration uncertain.
Description: as §8, §9

In another data set the test system is Serotonin 5-HT1D. As to the kind of experiment: Off-target binding (Cerep). Details: unit of the concentration uncertain.
Description: as §8, §9

The subject of the next data set is Benzodiazepine (central). As to the kind of experiment: Off-target binding (Cerep). Details: unit of the concentration uncertain.
Description: as §8, §9, §6

Data set [4] has as its system Ca2+ channel (L, dihydropyridine site). Put plainly: Off-target binding (Cerep). Details: unit of the concentration uncertain.
Description: as §8, §9, §6

For a further data set, the target named is T3, monkey H3Rs (Macaca mulatta, UniProt Q865E1).
T3 construct: Rat cerebral cortex and monkey frontal cortex were dissected; from tissue; host or cells: monkey frontal cortex membranes
As to the kind of experiment: In vitro binding to H3Rs, monkey frontal cortex membranes, [^3H]N-α-methylhistamine. Particulars: 1 nM [^3H]N-α-methylhistamine, geometric mean, n = 3, read-out: Affinity for H3Rs Monkey, IC50. How it is done:
as §3, §4

Where [5] appears, read: Concentration 10 (unit uncertain).
Where [6] appears, read: Concentration 1 (unit uncertain).

T2 sequence (Q9QYN8 whole entry): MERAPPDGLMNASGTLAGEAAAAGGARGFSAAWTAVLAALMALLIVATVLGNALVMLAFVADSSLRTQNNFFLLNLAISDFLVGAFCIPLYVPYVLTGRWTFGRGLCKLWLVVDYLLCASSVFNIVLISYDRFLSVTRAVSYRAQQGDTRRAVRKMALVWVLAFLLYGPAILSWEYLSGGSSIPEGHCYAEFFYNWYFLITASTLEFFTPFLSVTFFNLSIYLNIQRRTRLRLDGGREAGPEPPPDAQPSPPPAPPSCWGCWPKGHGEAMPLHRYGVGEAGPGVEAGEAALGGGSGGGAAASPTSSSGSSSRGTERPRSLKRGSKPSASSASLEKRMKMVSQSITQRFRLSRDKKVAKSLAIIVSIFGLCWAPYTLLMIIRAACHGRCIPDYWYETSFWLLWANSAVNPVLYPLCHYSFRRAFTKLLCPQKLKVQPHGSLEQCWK
T1 sequence (P08183 whole entry): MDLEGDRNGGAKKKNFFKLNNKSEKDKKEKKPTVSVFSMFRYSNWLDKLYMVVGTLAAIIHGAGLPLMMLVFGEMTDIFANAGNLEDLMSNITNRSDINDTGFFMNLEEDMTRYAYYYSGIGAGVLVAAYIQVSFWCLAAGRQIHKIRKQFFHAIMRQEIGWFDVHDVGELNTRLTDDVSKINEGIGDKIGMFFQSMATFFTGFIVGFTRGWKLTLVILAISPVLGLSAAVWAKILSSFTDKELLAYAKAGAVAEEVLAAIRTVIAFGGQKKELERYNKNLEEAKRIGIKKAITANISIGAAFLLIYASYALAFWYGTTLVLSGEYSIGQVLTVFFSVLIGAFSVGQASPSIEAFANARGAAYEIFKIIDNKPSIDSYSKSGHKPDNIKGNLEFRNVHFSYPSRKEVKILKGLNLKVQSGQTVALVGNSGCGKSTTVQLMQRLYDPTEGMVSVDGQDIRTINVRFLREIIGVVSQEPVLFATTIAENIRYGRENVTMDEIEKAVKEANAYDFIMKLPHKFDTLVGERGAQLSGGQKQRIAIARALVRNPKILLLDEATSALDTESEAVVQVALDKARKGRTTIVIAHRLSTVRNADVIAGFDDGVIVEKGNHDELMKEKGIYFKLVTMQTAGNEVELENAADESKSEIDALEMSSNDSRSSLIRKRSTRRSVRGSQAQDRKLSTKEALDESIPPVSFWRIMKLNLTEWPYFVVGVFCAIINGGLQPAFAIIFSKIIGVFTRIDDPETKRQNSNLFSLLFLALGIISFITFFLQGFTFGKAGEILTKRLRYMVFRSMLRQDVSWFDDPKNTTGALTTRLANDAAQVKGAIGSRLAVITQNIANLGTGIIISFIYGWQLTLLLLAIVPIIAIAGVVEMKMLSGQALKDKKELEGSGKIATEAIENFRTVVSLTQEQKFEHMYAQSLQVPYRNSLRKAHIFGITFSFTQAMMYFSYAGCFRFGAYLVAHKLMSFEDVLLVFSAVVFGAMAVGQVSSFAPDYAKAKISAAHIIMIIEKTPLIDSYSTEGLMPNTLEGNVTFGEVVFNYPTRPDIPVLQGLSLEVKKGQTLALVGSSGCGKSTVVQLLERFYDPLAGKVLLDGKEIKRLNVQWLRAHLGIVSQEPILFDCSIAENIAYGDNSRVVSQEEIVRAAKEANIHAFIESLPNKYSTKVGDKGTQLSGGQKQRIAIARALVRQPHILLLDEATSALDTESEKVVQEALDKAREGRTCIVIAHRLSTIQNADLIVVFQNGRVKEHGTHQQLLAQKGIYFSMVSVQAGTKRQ
T3 sequence (Q865E1 1-445): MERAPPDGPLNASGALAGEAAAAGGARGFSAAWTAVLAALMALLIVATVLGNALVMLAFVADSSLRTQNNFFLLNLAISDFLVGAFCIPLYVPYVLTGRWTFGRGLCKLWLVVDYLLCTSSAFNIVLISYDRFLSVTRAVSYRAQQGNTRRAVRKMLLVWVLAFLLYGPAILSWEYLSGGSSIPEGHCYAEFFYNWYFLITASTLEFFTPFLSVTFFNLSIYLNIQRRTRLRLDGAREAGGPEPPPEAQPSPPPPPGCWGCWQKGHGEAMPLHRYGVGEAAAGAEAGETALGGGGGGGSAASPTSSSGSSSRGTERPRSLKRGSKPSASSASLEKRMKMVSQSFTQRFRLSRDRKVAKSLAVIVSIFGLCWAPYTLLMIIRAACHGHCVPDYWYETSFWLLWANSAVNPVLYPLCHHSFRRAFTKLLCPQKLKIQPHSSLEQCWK

On to `COc1ccc(N2C(=O)CCc3cc(OCCCN4CCC[C@H]4C)ccc32)cc1` [TASP0390136, 1-(4-methoxyphenyl)-6-{3-[(2R)-2-methylpyrrolidin-1-yl]propoxy}-3,4-dihydroquinolin-2(1H)-one], for which the “susceptibility for P-glycoprotein (substrate or not)” value on P-glycoprotein (MDR1) is “P-glycoprotein substrates”. Also, at P-glycoprotein (MDR1), the efflux ratio at 2 h, 1 µM was determined as 6.29. Also, the IC50 is 2.74 nM at rat H3R and 1.06 nM at monkey H3Rs. Further, the logD in data set [1] was determined as 1.36. Moreover, the “% Inhibition” value is -18% with Glutamate AMPA (setting [5]); 22% with K+ channel KATP (setting [5]); 7% with K+ channel SKCa (setting [5]); -15% with K+ channel KV (setting [5]); -2% in the data set with Glutamate NMDA (setting [5]); 12% in data set [2] (setting [5]). The “% Inhibition” value in data set [3] (setting [5]) was -2%; in the data set on Opioid kappa (KOP) (setting [5]), 11%; in the data set on Serotonin 5-HT1B (setting [5]), -25%; with Imidazoline I2 (setting [5]), 23%; in the data set with Glutamate Kainate (setting [5]), -11%; with Serotonin 5-HT1D (setting [5]), 5%. Further, the “% Inhibition” value is given as -19% in the data set on Benzodiazepine (central) (setting [5]) and 20% in data set [4] (setting [5]).

With `COc1ccc(N2C(=O)CCc3cc(OC4CCN(C5CCC5)CC4)ccc32)cn1` [TASP0410457, 6-[(1-Cyclobutylpiperidin-4-yl)oxy]-1-(6-methoxypyridin-3-yl)-3,4-dihydroquinolin-2(1H)-one], at P-glycoprotein (MDR1), the “susceptibility for P-glycoprotein (substrate or not)” value was “not a substrate of P-glycoprotein”. The efflux ratio at 2 h, 1 µM at P-glycoprotein (MDR1) amounted to 1.64. Besides, the results for the IC50 on rat H3R and at monkey H3Rs were 2.34 nM and 1.8 nM, respectively. For the same compound, the logD in [1] was 1.79. In addition, the “% Inhibition” value with Glutamate AMPA (setting [5]) is 1%; in the data set with K+ channel KATP (setting [5]) it was 5%; in the data set with K+ channel SKCa (setting [5]) it was -1%; in the data set on K+ channel KV (setting [5]), -11%; with Glutamate NMDA (setting [5]) it was 11%; in [2] (setting [5]) it was -5%. Further, the “% Inhibition” value was -2% in data set [3] (setting [5]); -6% in the data set on Opioid kappa (KOP) (setting [5]); 25% in the data set with Serotonin 5-HT1B (setting [5]); 1% in the data set on Imidazoline I2 (setting [5]); -12% in the data set with Glutamate Kainate (setting [5]); 17% with Serotonin 5-HT1D (setting [5]). The “% Inhibition” value is -4% in the data set with Benzodiazepine (central) (setting [5]) and -23% in [4] (setting [5]).

Turning to `COc1ccc(N2C(=O)CCc3cc(OC4CCN(C5CCC5)CC4)ccc32)cc1` [TASP0434988, 6-[(1-cyclobutylpiperidin-4-yl)oxy]-1-(4-methoxyphenyl)-3,4-dihydroquinolin-2(1H)-one], on P-glycoprotein (MDR1), the “susceptibility for P-glycoprotein (substrate or not)” value was “P-glycoprotein substrates”. Moreover, the efflux ratio at 2 h, 1 µM at P-glycoprotein (MDR1) came to 2.14. For the same compound, the IC50 stood at 0.783 nM on rat H3R and 0.565 nM on monkey H3Rs. In addition, the logD in [1] is 2.22. Also, the “% Inhibition” value in the data set on Glutamate AMPA (setting [6]) is 0%; with K+ channel KATP (setting [6]), -4%; in the data set on K+ channel SKCa (setting [6]), -2%; with K+ channel KV (setting [6]) it was -1%; in the data set with Glutamate NMDA (setting [6]), -7%; in data set [2] (setting [6]) it was -8%. Also, the “% Inhibition” value in [3] (setting [6]) was 9%; with Opioid kappa (KOP) (setting [6]), -12%; with Serotonin 5-HT1B (setting [6]), 3%; with Imidazoline I2 (setting [6]), 16%; with Glutamate Kainate (setting [6]), 4%; in the data set with Serotonin 5-HT1D (setting [6]), -12%. Also, the “% Inhibition” value is reported as -2% with Benzodiazepine (central) (setting [6]) and -27% in [4] (setting [6]).
